Reference: EP0533352A2 (LYNXVALE LIMITED, priority 1991, dated 1993)
Like-named read-outs stand apart in the source and are kept apart here.

Columns and labels:
[1] = system: Rabbit urinary bladder smooth muscle strips; experiment: Nerve mediated contractions of rabbit urinary bladder muscle strips induced by electrical field stimulation; type: cell-based; conditions: for effect on the frequency response curve: 1 to 40 Hz
[2] = system: carbachol (5x10⁻⁶M) induced muscle contraction; experiment: Carbachol mediated muscle contractions of rabbit bladder muscle strips; type: cell-based; conditions: GABA: 10 strips, not in 6 strips, baclofen: 6 strips, not in 3 strips

NCc1cc(=O)[nH]o1 [Muscimol, muscimol]
inhibitory effect on nerve mediated muscle contraction ([1]; concentration range of 1x10⁻⁸ to 1x10⁻⁵M, n=5): no inhibitory effect

NC1=N[C@H](O)[C@H]2[C@H]3O[C@]4(O)O[C@@H]([C@@H](O)[C@@]2(N1)[C@@H]4O)[C@]3(O)CO [tetrodotoxin]
effect on contractions obtained by electrical field stimulation [1]: abolishing the contractions

NCC(O)(CS(=O)(=O)O)c1ccc(Cl)cc1 (centres unmarked) [2-hydroxysaclofen]
antagonism of the inhibition produced by GABA (change of EC₅₀) [1]: significant antagonism | change in the maximum response of GABA [1]: no significant difference

NCC(CC(=O)O)c1ccc(Cl)cc1 (racemic) [(±) baclofen]
EC₅₀ for inhibition of muscle contraction induced by electrical field stimulation [1]: 7.26 (±1.2)x10⁻⁶ M | maximum inhibition of muscle contraction induced by electrical field stimulation [1]: 26.5(±1.58) % | effect on the frequency response curve ([1]; 1x10⁻⁴M baclofen, n=13): significant inhibitory effect | inhibition of carbachol induced muscle contraction [2]: able to inhibit the muscle contraction

NCCCP(O)O [3-aminopropylphosphonous acid]
EC50 ([1]; Oryctolagus cuniculus, average over seven experiments, preliminary experiments, read-out: EC₅₀ for inhibition of electrically stimulated contraction): 250 ± 160 nM | maximum inhibition of muscle contraction induced by electrical field stimulation ([1]; percentage inhibition of control contraction, 10 Hz, 0.2 ms pulse width, 30V for 3 s, mean ± S.E.M.): 45 ± 18%

NCCCC(=O)O [GABA, gamma amino butyric acid]
effect on the frequency response curve ([1]; 1x10⁻⁵ GABA, n=15): significant right shift
